Reference: PubChem BioAssay (NCI)
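Cultured in 96-well plates, cells were exposed to test compound for 48 hours across five concentrations. TGI: total growth inhibition.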

Columns and labels:
Test in all cases: growth of human tumour cells (NCI), 48 h
HCT-116 colon = system: HCT-116 colon
A549 NSCLC = system: A549 NSCLC
CAKI-1 renal = system: CAKI-1 renal
NCI-H460 lung = system: NCI-H460 lung
NCI-H23 lung = system: NCI-H23 lung
HOP-62 NSCLC = system: HOP-62 NSCLC
NCI-H226 lung = system: NCI-H226 lung
MDA-MB-231 breast = system: MDA-MB-231 breast
A498 renal = system: A498 renal
HCC-2998 colon = system: HCC-2998 colon
M14 melanoma = system: M14 melanoma
T-47D breast = system: T-47D breast
RXF 393 renal = system: RXF 393 renal
PC-3 prostate = system: PC-3 prostate
SK-MEL-5 melanoma = system: SK-MEL-5 melanoma
SF-295 CNS = system: SF-295 CNS
DU-145 prostate = system: DU-145 prostate
EKVX NSCLC = system: EKVX NSCLC
SF-539 CNS = system: SF-539 CNS
IGROV1 ovarian = system: IGROV1 ovarian
HOP-92 NSCLC = system: HOP-92 NSCLC
OVCAR-5 ovarian = system: OVCAR-5 ovarian
MOLT-4 leukemia = system: MOLT-4 leukemia
CCRF-CEM leukemia = system: CCRF-CEM leukemia
SF-268 CNS = system: SF-268 CNS
UO-31 renal = system: UO-31 renal
SK-OV-3 ovarian = system: SK-OV-3 ovarian
K-562 leukemia = system: K-562 leukemia
BT-549 breast = system: BT-549 breast
NCI/ADR-RES ovarian = system: NCI/ADR-RES ovarian
OVCAR-4 ovarian = system: OVCAR-4 ovarian
MALME-3M melanoma = system: MALME-3M melanoma
UACC-257 melanoma = system: UACC-257 melanoma
LOX IMVI melanoma = system: LOX IMVI melanoma
U251 CNS = system: U251 CNS
786-0 renal = system: 786-0 renal
OVCAR-3 ovarian = system: OVCAR-3 ovarian
OVCAR-8 ovarian = system: OVCAR-8 ovarian
SR leukemia = system: SR leukemia
SW-620 colon = system: SW-620 colon
SK-MEL-28 melanoma = system: SK-MEL-28 melanoma
KM12 colon = system: KM12 colon
HS 578T breast = system: HS 578T breast
SN12C renal = system: SN12C renal
COLO 205 colon = system: COLO 205 colon
SNB-19 CNS = system: SNB-19 CNS
TK-10 renal = system: TK-10 renal
HL-60(TB) leukemia = system: HL-60(TB) leukemia
MDA-MB-435 = system: MDA-MB-435
ACHN renal = system: ACHN renal
NCI-H522 lung = system: NCI-H522 lung
RPMI-8226 leukemia = system: RPMI-8226 leukemia
UACC-62 melanoma = system: UACC-62 melanoma
HCT-15 colon = system: HCT-15 colon
HT29 colon = system: HT29 colon
MCF7 breast = system: MCF7 breast
SNB-75 CNS = system: SNB-75 CNS
SK-MEL-2 melanoma = system: SK-MEL-2 melanoma

COC1OC(C)/C(=N/O)C2OC(C)(C)OC12 (stereo not drawn)
TGI (HCT-116 colon): > 100 µM | TGI (A549 NSCLC): > 100 µM | TGI (CAKI-1 renal): > 100 µM | TGI (NCI-H460 lung): > 100 µM | TGI (NCI-H23 lung): > 100 µM | TGI (HOP-62 NSCLC): > 100 µM | TGI (NCI-H226 lung): > 100 µM | TGI (MDA-MB-231 breast): > 100 µM | TGI (A498 renal): > 100 µM | TGI (HCC-2998 colon): > 100 µM | TGI (M14 melanoma): > 100 µM | TGI (T-47D breast): > 100 µM | TGI (RXF 393 renal): > 100 µM | TGI (PC-3 prostate): > 100 µM | TGI (SK-MEL-5 melanoma): > 100 µM | TGI (SF-295 CNS): > 100 µM | TGI (DU-145 prostate): > 100 µM | TGI (EKVX NSCLC): > 100 µM | TGI (SF-539 CNS): > 100 µM | TGI (IGROV1 ovarian): > 100 µM | TGI (HOP-92 NSCLC): > 100 µM | TGI (OVCAR-5 ovarian): > 100 µM | TGI (MOLT-4 leukemia): > 100 µM | TGI (CCRF-CEM leukemia): > 100 µM | TGI (SF-268 CNS): > 100 µM | TGI (UO-31 renal): > 100 µM | TGI (SK-OV-3 ovarian): > 100 µM | TGI (K-562 leukemia): > 100 µM | TGI (BT-549 breast): > 100 µM | TGI (NCI/ADR-RES ovarian): > 100 µM | TGI (OVCAR-4 ovarian): > 100 µM | TGI (MALME-3M melanoma): > 100 µM | TGI (UACC-257 melanoma): > 100 µM | TGI (LOX IMVI melanoma): > 100 µM | TGI (U251 CNS): > 100 µM | TGI (786-0 renal): > 100 µM | TGI (OVCAR-3 ovarian): > 100 µM | TGI (OVCAR-8 ovarian): > 100 µM | TGI (SR leukemia): > 100 µM | TGI (SW-620 colon): > 100 µM | TGI (SK-MEL-28 melanoma): > 100 µM | TGI (KM12 colon): > 100 µM | TGI (HS 578T breast): > 100 µM | TGI (SN12C renal): > 100 µM | TGI (COLO 205 colon): > 100 µM | TGI (SNB-19 CNS): > 100 µM | TGI (TK-10 renal): > 100 µM | TGI (HL-60(TB) leukemia): > 100 µM | TGI (MDA-MB-435): > 100 µM | TGI (ACHN renal): > 100 µM | TGI (NCI-H522 lung): > 100 µM | TGI (RPMI-8226 leukemia): > 100 µM | TGI (UACC-62 melanoma): > 100 µM | TGI (HCT-15 colon): > 100 µM | TGI (HT29 colon): > 100 µM | TGI (MCF7 breast): > 100 µM

C[C@]12CC[C@H]3[C@@H](CC=C4C[C@@H](O)CC[C@@]43C)[C@@H]1C/C(=C\c1ccc([N+](=O)[O-])cc1)[C@@H]2O
TGI (HCT-116 colon): 14 µM | TGI (A549 NSCLC): 25.1 µM | TGI (CAKI-1 renal): 36.8 µM | TGI (NCI-H460 lung): 72.9 µM | TGI (NCI-H23 lung): 51.7 µM | TGI (HOP-62 NSCLC): 27.7 µM | TGI (NCI-H226 lung): 55.2 µM | TGI (MDA-MB-231 breast): 22.6 µM | TGI (A498 renal): 42.4 µM | TGI (HCC-2998 colon): 30.4 µM | TGI (M14 melanoma): > 100 µM | TGI (T-47D breast): 29.5 µM | TGI (RXF 393 renal): 21.4 µM | TGI (PC-3 prostate): 33.5 µM | TGI (SK-MEL-5 melanoma): 23.2 µM | TGI (SF-295 CNS): 46.5 µM | TGI (DU-145 prostate): 23 µM | TGI (EKVX NSCLC): 26.5 µM | TGI (SF-539 CNS): 34.5 µM | TGI (IGROV1 ovarian): > 100 µM | TGI (HOP-92 NSCLC): 91.7 µM | TGI (OVCAR-5 ovarian): 78.4 µM | TGI (MOLT-4 leukemia): > 100 µM | TGI (CCRF-CEM leukemia): > 100 µM | TGI (SNB-75 CNS): 32.1 µM | TGI (SF-268 CNS): > 100 µM | TGI (UO-31 renal): 24.4 µM | TGI (SK-OV-3 ovarian): 28.1 µM | TGI (K-562 leukemia): > 100 µM | TGI (BT-549 breast): 38 µM | TGI (NCI/ADR-RES ovarian): 48.4 µM | TGI (OVCAR-4 ovarian): 3.7 µM | TGI (MALME-3M melanoma): 53 µM | TGI (UACC-257 melanoma): 59 µM | TGI (LOX IMVI melanoma): > 100 µM | TGI (786-0 renal): 22.8 µM | TGI (OVCAR-3 ovarian): 37.1 µM | TGI (OVCAR-8 ovarian): 36.9 µM | TGI (SR leukemia): > 100 µM | TGI (SW-620 colon): > 100 µM | TGI (SK-MEL-28 melanoma): 57.6 µM | TGI (KM12 colon): > 100 µM | TGI (HS 578T breast): > 100 µM | TGI (SN12C renal): 22.9 µM | TGI (COLO 205 colon): > 100 µM | TGI (SK-MEL-2 melanoma): 52.9 µM | TGI (SNB-19 CNS): 38.7 µM | TGI (TK-10 renal): 55.2 µM | TGI (HL-60(TB) leukemia): 80.9 µM | TGI (MDA-MB-435): > 100 µM | TGI (ACHN renal): 24.4 µM | TGI (NCI-H522 lung): 32.7 µM | TGI (RPMI-8226 leukemia): > 100 µM | TGI (UACC-62 melanoma): 34.1 µM | TGI (HCT-15 colon): > 100 µM | TGI (HT29 colon): 20.6 µM | TGI (MCF7 breast): 19.6 µM
